How the values were obtained:
[1] = Determination of oral bioavailability by urinary recovery after oral administration; format: in vivo; settings: Long Evans Rats, gavage, 50 mg/kg; percent of dose excreted in urine over 48 hour collection as the parent compound 1-(β-D-arabinofuranosyl)-5-prop-1-ynyluracil
Procedure: Tests in rats were carried out on compounds of the invention to determine their bioavailability by measuring the urinary recovery after oral administration, as a percentage of the dose administered. High levels of the parent compound, 1-(β-D-arabinofuranosyl)-5-prop-1-ynyluracil, in the urine indicated good absorption from the gut.
Long Evans Rats were administered the compound of Example 1 or the parent compound by gavage at a dose of 50 mg/kg. The urine was collected for 24 and 48 hours post-dose, ultrafiltered, and analysed by reverse-phase high-pressure liquid chromatography. The oral bioavailability of the Example 1 compound and the parent compound was expressed as the percent of the dose excreted in the urine over the 48 hour period of collection, as 1-(β-D-arabinofuranosyl)-5-prop-1-ynyluracil, i.e. the parent compound.

Vero cells = assay: Cell toxicity in a cell growth inhibition assay (MTT uptake); format: cell-based; settings: concentration for 50% inhibition of cell viability at 96 hours
Procedure: Cell toxicity is assessed in a cell growth inhibition assay. Subconfluent cultures of Vero cells grown on 96-well microtiter dishes are exposed to different dilutions of drug, and cell viability determined daily on replicate cultures using uptake of a tetrazolium dye (MTT). The concentration required for a 50% inhibition of cell vaibility at 96 hours is termed CCID₅₀.

What does the source list for “5-Prop-1-ynyl-1-(5-0-trimethylacetyl-β-D-arabinofuranosyl)uracil [Example 1]”?
Urinary Recovery (% of dose) [1]: 64.89 % of dose; CCID₅₀(µM) at 96 hr (Vero cells): 477 µM

Which “Urinary Recovery (% of dose)” value [1] does the source give for `CC#Cc1cn([C@@H]2O[C@H](CO)[C@@H](O)[C@@H]2O)c(=O)[nH]c1=O` [Parent Compound, 1-(β-D-arabinofuranosyl)-5-prop-1-ynyluracil, reference compound] here?
Its value is 9.70 % of dose.
